Laboratory results: patent US20250129054A1 (Terran Biosciences Inc., priority 2022, published 2025)

Experiments:
[1] = tested on: rat elevated zero maze model of anxiety; assay: Rat elevated zero maze model of anxiety (% time on open areas, stretched attend postures); type: in vivo, Sprague-Dawley rats
Excerpt: The rat zero-maze model is a refined alternative to the plus-maze, the most widely used animal model of anxiety, and consists of an elevated annular platform, divided equally into four quadrants. Two opposite quadrants are enclosed by Perspex walls on both the inner and the outer edges of the platform, while the remaining two opposite quadrants are open being enclosed only by a Perspex “lip”. Animals will show a preference for the closed areas, and avoidance of the open sections is assumed to stem from a rodent's natural aversion to open, exposed spaces. The primary index of anxiety, which reflect changes in open arm preference, is the percentage of time spent on the open areas. A reduction in the amount of activity on the open areas is considered to reflect an increase in anxiety. Other, ethologically-based behaviours are also assessed as indices of anxiety. One of the most important is stretched attend postures (SAP) from closed to open quadrants. […] Shepherd, J K; et al., (1994) Behavioural and pharmacological validation of the elevated “zero-maze” as an animal model of anxiety. Psychopharmacol., 116:56-64.
Male Sprague-Dawley 200-250 g (Envigo UK) rats were used. Animals were group-housed (5 per cage; cage size: 40×40×20 cm) in a temperature-controlled environment (22±2° C.), under a 12 h light-dark cycle (lights on: 08:00 hours) for one week prior to testing. Food and water were freely available. Number of animals per group=5. Animals were moved into the experimental room 16-24 hours before testing.
The elevated 0-maze comprises a black Perspex annular platform (105 cm diameter, 10 cm width) elevated to 65 cm above ground level, divided equally into four quadrants. Two opposite quadrants are enclosed by clear red Perspex walls (27 cm high) on both the inner and outer edges of the platform, while the remaining two opposite quadrants are surrounded only by a Perspex “lip” (1 cm high) which serves as a tactile guide to animals on these open areas.
Subjects were weighed and tail marked before being injected. After a specified pre-treatment time, subjects were placed in a closed quadrant and a 5-min test period were recorded on videotape for subsequent analysis. The maze were cleaned with 5% methanol/water solution and dried thoroughly between test sessions. Behavioural measures comprise percentage time spent on the open areas (% TO) and frequency of stretched attend postures (SAP) from closed to open quadrants. Since the control groups were all treated identically with the same vehicle these were combined to increase power. The Chlordiazepoxide groups were also treated identically with the same dose so these were also combined to increase power. Animals are scored as being in the open area when all four paws were in an open quadrant and in the closed area only when all four paws have passed over the open-closed divide. All testing were carried out between 9.00 and 16.00 hours.
For each study, a 1-way ANOVA was conducted across vehicle, CDP, and drug treatment groups. Each group was compared to the vehicle group and a p-value for treatment determined by Fishers Least Significant Difference (LSD) test. This analysis was performed in GraphPad Prism (Version 9).
Intraperitoneal (IP): Racemic methylone HCl was formulated in Vehicle 1 (Saline) for injection to concentrations of 1, 3 and 6 mg/mL to provide doses of 5, 15 and 30 mg/kg when administered ip in 5 mL/kg dosing volumes.
Intraperitoneal (IP): S-methylone HCl was formulated in Vehicle 1 (Saline) for injection to concentrations of 0.5, 1, 1.5, 3 and 6 mg/mL to provide doses of 2.5, 5, 7.5, 15 and 30 mg/kg when administered ip in 5 mL/kg dosing volumes.
Intraperitoneal (IP): R-methylone HCl was formulated in Vehicle 1 (Saline) for injection to concentrations of 1, 3 and 6 mg/mL to provide doses of 5, 15 and 30 mg/kg when administered ip in 5 mL/kg dosing volumes. […]

[2] = Terminal plasma and brain concentration at the end of the zero maze study; type: in vivo, Sprague-Dawley rats; details: 5, 15 and 30 mg/kg ip, male SD rats
Procedure: Terminal sampling. At the end of the study, terminal blood was collected from 2 of the vehicle treated rats (>5 mL) and from all methylone HCl treated rats (500 uL) by CP under CO2. Blood samples were placed into Eppendorf tubes on ice containing 22 μL/mL blood (vehicle treated) or 11 μL EDTA (93 mg/mL) (Methylone HCl treated rats) and gently mixed. After no longer than 30 min, blood samples were centrifuged at 10,000 rpm×3 min and plasma samples (>2 mL (vehicle) or 2×100 μL (Methylone HCl treated) placed into Eppendorf tubes (Vehicle) or 96 well plates on dry ice. Immediately after blood sampling, brains were excised, rinsed in saline, blotted, weighed and snap-frozen in liquid N2. All samples were stored at −20
Terminal sampling. At the end of the study, terminal blood was collected from 2 of the vehicle treated rats (>5 mL) and from all S-methylone HCl treated rats (500 uL) by CP under CO2. Blood samples were placed into Eppendorf tubes on ice containing 22 μL/mL blood (vehicle treated) or 11 μL EDTA (93 mg/mL) (S-methylone HCl treated rats) and gently mixed. […]

[3] = 30 mg/kg ip, 30 min pretreatment, vs vehicle and chlordiazepoxide 6 mg/kg, male SD rats
[4] = specific (sufficient) doses ip, compared with chlordiazepoxide 6 mg/kg

Structure (SMILES): CNC(C)C(=O)c1ccc2c(c1)OCO2 (racemic) [racemic methylone]
- time spent in the open arms ([1]; 5 mg/kg ip, 30 min pretreatment, vs vehicle, male SD rats): decrease in time spent in the open arms vs placebo
- frequency of SAPs ([1]; 15 mg/kg ip, 30 min pretreatment, male SD rats): dose dependent decrease in SAPs
- time spent in the open arms ([1]; 15 mg/kg ip, 30 min pretreatment, vs vehicle, male SD rats): no difference from placebo
- frequency of SAPs [1, 3]: decrease in SAPs
- time spent in the open arms [1, 3]: significant decrease in time spent in the open arms
- anxiogenic effect ([1]; across the doses tested, ip, male SD rats): show anxiogenic effects at lower doses
- frequency of SAPs [1, 4]: decreased the frequency of SAPs as effectively as the benzodiazepine chlordiazepoxide
- time in the open arms [1, 4]: increase time in the open arms
- concentration in plasma and brain at the end of the zero maze study [2]: increased in both brain and plasma at the higher doses
